Like-named read-outs stand apart in the source and are kept apart here. One block for each compound: values may come before it.
Tests used:
[1] = target: T1, sstr2 (Homo sapiens, UniProt P30874); test: [3H]-BN83250 equilibrium binding to THP-1 cells (Scatchard/competition)
T1 construct: with 1×10^6 THP-1 cells in Gey's Balanced Salt Solution, 10 nM [^3H]-BN83250; endogenous in cells; host or cells: THP-1 cells (intact cells, 4 °C)
Procedure: Methods: [^3H]-BN83250 was synthesesized from (S,E)-3-(2′,2′-dimethyldodec-4′-enoylamino)-caprolactam by catalytic hydrogenation using tritium gas over a palladium catalyst (CRB Ltd, Cleveland, UK), yielding the tritiated product at a concentration of 270 μM in ethanol with a specific activity of 220Ci/mmol. The (S,E)-3-(2′,2′-dimethyldodec-4′-enoylamino)-caprolactam was prepared as follows: (S,S)-3-amino-caprolactam hydro-pyrrolidine-5-carboxylate (10 mmol) and Na2CO3 (30 mmol) in water (30 ml) were added to a solution of 2,2-dimethyl-dodec-4-enoyl chloride (10 mmol) in dichloromethane (30 ml) at ambient temperature and the reaction was stirred for 12 hours. The organic layer was then separated and the aqueous phase was extracted with additional dichloromethane (2×25 ml). The combined organic layers were dried over Na2CO3 and reduced in vacuo. The residue was purified by silica column chromatography (1:1 EtOAc:hexanes to EtOAc) to give (S,E)-3-(2′,2′-dimethyl-dodec-4′-enoyl)amino-caprolactam as a colourless oil (2.12 g, 63%). The radiolabelled compound was stored in the dark at 4° C. until required. Prior to use the specific activity was adjusted by addition of unlabelled BN83250.
For the analysis of binding, individual reactions were set up (in triplicate for each condition), with 1×10^6 THP-1 cells in Gey's Balanced Salt Solution, 10 nM [^3H]-BN83250 (at 50 Ci/mmol) and various concentrations of (S)-3(2′2′-dimethylpropionoylamino)-tetrahydropyridin-2-one (10 pM to 10 μM). Excess (100 μM) unlabelled BN83250 was used to determine the level of non-specific binding. After 2 hours at 4° C. (conditions previously shown to achieve equilibrium binding, and which prevent uptake of the radioligand that would result in an over-estimate of binding) excess label was washed away by centrifugation (3 washes with 5 ml of Gey's Balanced Salt Solution) and the bound radioactivity was determined by scintillation counting of the solubilised cell pellet.
Hits from this assay were confirmed using conventional Scatchard analysis, exactly as described in Example 4 above.

[2] = test system: Panc-2H4 cells; test: Human Panc-2H4 insulin suppression assay; type: cell-based; conditions: for Human Panc-2H4 insulin suppression assay Max effect: suppression compared to vehicle
Source text: (§1) Two different assays for “classical” sstr2 functions were adopted: (1) cultured foetal rat pituitary cells secreted growth hormone which is inhibited by sstr2 agonists in a dose-dependent fashion and (2) selected glucose-sensitive sub-clones of the human Panc-1 cell line secrete insulin which is inhibited by sstr2 agonists in a dose-dependent fashion.
Glucose-sensitive sub-clones of the human Panc-1, a cell line derived from a pleiomorphic epithelioid carcinoma of the exocrine pancreas, were obtained essentially as described by Hamil et al. (2008) Biomed. Sci. Instrum. 44:441-6. Briefly, Panc-1 cells were subcultured in 24 well plates, and the medium was supplemented with an additional 5% glucose. […] The resulting sub-lines were then tested for glucose sensitivity by preparing wells of a 96-well plate (5×10^4 cells per well) which were then exposed to cultured medium containing a range of glucose concentrations (low glucose DMEM, DMEM, DMEM+1% glucose, DMEM+2.5% glucose and DMEM+5% glucose). After 24 hrs incubation, the conditioned medium was collected and assayed for insulin secretion by ELISA (Linco; cat# EZHI-14K) in accordance with the manufacturer's instructions. […] Further 96 well plates were prepared using Panc-2H4 (5×10^4 cells per well) in DMEM. After 24 hrs, the medium was switched to DMEM+5% glucose containing various test agents at various concentrations (triplicate wells per condition). After a further 24 hrs, the conditioned medium was harvested and the concentration of insulin was determined by ELISA as described above.
(§2) Results were reported as the mean SD, expressed as the fold change from cells in the presence of vehicle only.

[3] = test system: fetal rat pituicytes; test: Rat pituicyte GH suppression assay; type: cell-based; conditions: Table 3; suppression compared to vehicle
Source text: as §1
Methods: Cultures of fetal rat pituicytes were established exactly as previously described (Murray et al. (2004) J. Clin. Endocrinol. Metab. 89:3027-32) by enzymatic dispersion. After 48 hrs in low glucose DMEM plus 10% FCS, cells in 48 well plates (5×10^4 cells per well) were washed for 4 hrs in serum-free DMEM and then incubated with test agents at various concentrations for a further 24 hrs in serum-free DMEM. At the end of this period, the conditioned medium was harvested, any cell debris removed by centrifugation and assayed for […] using a commercially available ELISA (Linco; cat# EZRMGH-45K) in accordance with the manufacturer's instructions.
as §2

[4] = test system: rat peripheral blood leukocytes; test: Rat chemokine-induced PBMC migration assay; type: cell-based
Procedure: Similarly, where human Panc-2H4 cells are used to determine the effect of agents on classical sstr2 targets, the result is compared with the effect of the same agents on chemokine-induced migration of human THP-1 cells. […] For this reason, the ratio of “classical” to “BSCI” activity in Table 3 is calculated separately for rat and human.

[5] = test system: THP-1 cells; test: MCP-1 induced THP-1 cell migration (Transwell/ChemoTx); conditions: for “Classical”:“BSCI” potency ratio, Human: THP-1 migration ED50 versus Panc-2H4 insulin ED50; for RATIO: Table 4, migration ED50 versus insulin ED50
Procedure: Leukocyte migration was measured using the 96-well format micro Transwell® assay system from Neuroprobe (Gaithersburg, Md., USA). In principle, this assay consists of two chambers separated by a porous membrane. The chemoattractant is placed in the lower compartment and the cells are placed in the upper compartment.
First, the cell suspension to be placed in the upper compartment was prepared. The THP-1 cells were pelleted by centrifugation (770×g; 4 mins) and washed with Geys Balanced Salt Solution with 1 mg/ml BSA (GBSS+BSA). This wash was then repeated, and the cells re-pelleted before being resuspended in a small volume of GBSS+BSA for counting, for example using a standard haemocytometer.
This ensured that there were 100,000 THP-1 cells in each 25 μl of the solution to be placed in the upper chamber of the plate.
To the third pot, GBSS+BSA plus vehicle as appropriate was added so that the volumes in three pots are equal, acting as a control.
Next, the chemoattractant solution to be placed in the lower compartment was prepared. […] This solution was divided into three pots, as for the cell suspension. To one pot, the BSCI was added to the same final concentration as was added to the cell suspension, in the second pot the BSCI and the sstr2 antagonist were both added at the same concentration as previously added to the cell suspension, while to the remaining pot GBSS+BSA plus vehicle as appropriate was added so that the volumes in the three pots were equal.
Once the chemoattractant solutions for the lower wells and cell solutions for the upper chambers were prepared, the migration chamber was assembled. 29 μl of the appropriate chemoattractant solution was placed into the lower well of the chamber. Assays were performed with at least triplicate determinations of each condition. Once all the lower chambers were filled, the porous membrane was applied to the chamber in accordance with the manufacturer's instructions. Finally, 25 μl of the appropriate cell solution was applied to each upper chamber. A plastic lid was placed over the entire apparatus to prevent evaporation.
The assembled chamber was incubated at 37° C., 5% CO2, for 2 hours.
At the end of the incubation, the liquid cell suspension was gently removed from the upper chamber, 20 μl of ice-cold 20 mM EDTA in PBS was added to the upper chamber, and the apparatus was incubated at 4° C. for 15 mins. This procedure caused any cells adhering to the underside of the membrane to fall into the lower chamber.
After this incubation the filter was carefully flushed with GBSS+BSA to wash off the EDTA, and then the filter was removed.
The number of cells migrated into the lower chamber under each condition can then be determined by a number of methods, including direct counting, labelling with fluorescent or radioactive markers or through the use of a vital dye. Typically, we utilised the vital dye MTT. 3 μl of stock MTT solution were added to each well, and then the plate was incubated at 37° C. for 1-2 hours during which time dehydrogenase enzymes within the cells converted the soluble MTT to an insoluble blue formazan product that could be quantified spectrophotometrically.
In parallel, an 8-point standard curve was set up. Starting with the number of cells added to each upper chamber (100,000) and going down in 2-fold serial dilutions in GBSS+BSA, the cells were added to a plate in 25 with 3 μl of MTT stock solution added. The standard curve plate was incubated along side the migration plate. At the end of this incubation, the liquid was carefully removed from the lower chambers, taking care not to disturb the precipitated formazan product.
The MCP-1 stimulated migration was determined by subtracting the average number of cells that reached the lower compartment in wells where no MCP-1 was added from the average number of cells that reached the lower compartment where MCP-1 was present at 25 ng/ml.

[6] = target: type 2 somatostatin receptor (sstr2), human (human) (UniProt P30874); test: cell-based or functional assay
[7] = target: type 2 somatostatin receptor (sstr2), rat (rat) (UniProt P30680); test: cell-based or functional assay
[8] = Table 4, 0.01-1,000 nM, 1% DMSO, read-out: Panc-2H4 insulin suppression assay (“classical” target) ED50

Chain of type 2 somatostatin receptor (sstr2), human (human) (P30874 whole entry): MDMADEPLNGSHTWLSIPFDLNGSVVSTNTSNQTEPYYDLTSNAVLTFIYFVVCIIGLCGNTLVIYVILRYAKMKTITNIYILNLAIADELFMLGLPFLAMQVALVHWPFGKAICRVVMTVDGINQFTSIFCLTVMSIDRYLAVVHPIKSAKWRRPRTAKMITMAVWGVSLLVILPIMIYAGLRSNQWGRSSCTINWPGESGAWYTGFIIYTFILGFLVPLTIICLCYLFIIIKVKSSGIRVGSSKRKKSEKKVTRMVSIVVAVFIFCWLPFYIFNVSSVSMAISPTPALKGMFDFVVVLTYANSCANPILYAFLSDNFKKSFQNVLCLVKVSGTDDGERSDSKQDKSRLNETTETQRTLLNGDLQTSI
T1 sequence (P30874 whole entry): as above
Chain of type 2 somatostatin receptor (sstr2), rat (rat) (P30680 whole entry): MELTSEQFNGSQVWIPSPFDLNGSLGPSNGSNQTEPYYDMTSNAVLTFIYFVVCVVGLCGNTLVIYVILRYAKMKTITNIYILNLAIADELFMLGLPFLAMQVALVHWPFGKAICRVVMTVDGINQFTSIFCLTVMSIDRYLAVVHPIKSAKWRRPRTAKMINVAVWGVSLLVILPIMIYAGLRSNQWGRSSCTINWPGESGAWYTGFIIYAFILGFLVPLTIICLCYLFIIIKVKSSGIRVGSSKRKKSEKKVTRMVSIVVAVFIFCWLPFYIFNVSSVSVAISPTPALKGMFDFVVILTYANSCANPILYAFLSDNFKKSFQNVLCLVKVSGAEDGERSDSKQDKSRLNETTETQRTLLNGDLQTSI

Compound: CC(C)(C)C(=O)N[C@H]1CCCNC1=O
Hill Slope ([1]; competition with [3H]-BN83250): approximately −1.0

Compound: CC(=O)NC(CC(N)=O)C(=O)NC(C(=O)NCC1CCCC(CN)C1)C(C)c1c[nH]c2ccccc12 (mixture of isomers) [D]
Panc-2H4 insulin suppression assay Max Effect ([2]; Table 4): 37%

Compound: CC1(C(=O)N[C@H]2CCCCNC2=O)CCCCC1 [(S)-3-(1′-methylcyclohexyl-1′-carbonylamino)-caprolactam]
competition with BN83250 binding to sstr2 [1]: compete with BN83250 binding to sstr2 to a similar extent

EC50 ([2]; Table 3, read-out: Human Panc-2H4 insulin suppression assay ED50): > 1000 nM
Compound: O=C1NCCCC[C@@H]1NC(=O)C12CC3CC(CC(C3)C1)C2 [BN83470, (S)-3-(admantane-1′-carbonylamino)-caprolactam]
Rat pituicyte GH suppression assay Max effect [3]: 56%
Human Panc-2H4 insulin suppression assay Max effect ([2]; Table 3): <10%
inhibition of insulin secretion by Panc-2H4 ([2]; highest concentrations tested): None of these agents inhibited insulin secretion
“Classical”:“BSCI” potency ratio, Rat ([4]; PBMC migration ED50 versus pituicyte GH ED50): 0.0008
Rat chemokine-induced PBMC migration assay Max effect ([4]; Table 3): 100%
competition with BN83250 binding to sstr2 [1]: compete with BN83250 binding to sstr2 to a similar extent
“Classical”:“BSCI” potency ratio, Human [5]: <0.00008
Human chemokine-induced THP-1 migration assay Max effect ([5]; Table 3): 100%

Compound: CC(c1c[nH]c2ccccc12)C(NC(=O)N1CC(=O)NC(=O)C1)C(=O)NCC1CCCC(CN)C1 (stereo not drawn) [Compound B]
Panc-2H4 insulin suppression assay Max Effect ([2]; Table 4): 52%
RATIO [5]: 1.3

Compound: CC(c1c[nH]c2ccccc12)C(NC(=O)NC1CCCNC1=O)C(=O)NCC1CCCC(CN)C1 (stereo not drawn) [Compound C]
Panc-2H4 insulin suppression assay Max Effect ([2]; Table 4): 56%
RATIO [5]: 0.02

EC50 [2, 8]: > 1000 nM
Compound: CC(=O)NC(=O)C(NC(=O)N1CCC(n2c(=O)[nH]c3ccccc32)CC1)C(C)c1c[nH]c2ccccc12 (stereo not drawn) [E]
Panc-2H4 insulin suppression assay Max Effect ([2]; Table 4): <10%

EC50 [2, 8]: > 1000 nM
Compound: NCC1CCCC(CNC(=O)C(Cc2ccccc2)NC(=O)N2CCC(n3c(=O)[nH]c4ccccc43)CC2)C1 (stereo not drawn) [F]
Panc-2H4 insulin suppression assay Max Effect ([2]; Table 4): <10%

Compound: C[C@@H](c1c[nH]c2ccccc12)[C@@H](NC(=O)N1CCC(n2c(=O)[nH]c3ccccc32)CC1)C(=O)NC[C@@H]1CCC[C@H](CN)C1 [L-779,976]
Rat pituicyte GH suppression assay Max effect [3]: 55%
Human Panc-2H4 insulin suppression assay Max effect ([2]; Table 3): 40%
Panc-2H4 insulin suppression assay Max Effect ([2]; Table 4): 40%
Panc-2H4 insulin suppression assay Max Effect ([2]; Table 5): 40%
“Classical”:“BSCI” potency ratio, Human [5]: 27

Human Panc-2H4 insulin suppression assay ED50 [6]: > 1000 nM
Human Panc-2H4 insulin suppression assay Max effect [6]: < 10%
Human chemokine-induced THP-1 migration assay ED50 [6]: 6.9 nM
Human chemokine-induced THP-1 migration assay Max effect [6]: 100%
Rat chemokine-induced PBMC migration assay ED50 [7]: 15 nM
Rat chemokine-induced PBMC migration assay Max effect [7]: 100%
Rat pituicyte GH suppression assay ED50 [7]: 550 nM
Rat pituicyte GH suppression assay Max effect [7]: 42%
Compound: BIM58187 (peptide)

Compound: SST-28: alternatively processed sst28 natural ligand
Max effect (maximum inhibition) ([5]; Table 2, at the highest dose tested (1-10 μM)): 40-60%

Human Panc-2H4 insulin suppression assay ED50 [6]: 0.14 nM
Human Panc-2H4 insulin suppression assay Max effect [6]: 51%
Human chemokine-induced THP-1 migration assay ED50 [6]: 0.9 nM
Human chemokine-induced THP-1 migration assay Max effect [6]: 38%
Rat chemokine-induced PBMC migration assay ED50 [7]: 1.2 nM
Rat chemokine-induced PBMC migration assay Max effect [7]: 44%
Rat pituicyte GH suppression assay ED50 [7]: 0.17 nM
Rat pituicyte GH suppression assay Max effect [7]: 73%
Compound: somatostatin-28 (from UniProt P61278 89-116) (peptide)

Reference: US20120115742A1, “METHODS FOR IDENTIFICATION” (Cambridge Enterprise Limited, priority 2009, published 2012)
